Among the data in patent US20200197409A1, “HEPATITIS B VIRUS SURFACE ANTIGEN INHIBITOR” (FUJIAN COSUNTER PHARMACEUTICAL CO., LTD., priority 2017, published 2020) are EC50 and IC50 values, retold here.

The term EC50 denotes the concentration giving half of the maximal effect. A lower EC50 goes with a more potent agent. As usually defined, the IC50 is the concentration that gives 50% inhibition.

One assay has as its system HBV-DNA. Put plainly: HBV DNA content in HepG2.2.15 cells culture supernatant by real time-qPCR. The class given is cell-based. Particulars: supernatant on the 8th day. The procedure:
2.1 Cell Line: HepG2.2.15 Cells
3.6 15 μL of the reaction mixture was added into each well of a 96-well PCR plate, followed by addition of 10 μL of sample DNA or HBV DNA standards into each well.
3.7 PCR reaction conditions: heating at 95° C. for 10 minutes, then denaturation at 95° C. for 15 seconds, extension at 60° C. for 1 minute, a total of 40 cycles.
Background: Quantitative PCR measures a nucleic acid by following its amplification.

In another assay the target is T1, CYP3A4-M (Homo sapiens, UniProt P08684).
T1 construct: from tissue; host or cells: human liver microsomes
T1 sequence (P08684 whole entry): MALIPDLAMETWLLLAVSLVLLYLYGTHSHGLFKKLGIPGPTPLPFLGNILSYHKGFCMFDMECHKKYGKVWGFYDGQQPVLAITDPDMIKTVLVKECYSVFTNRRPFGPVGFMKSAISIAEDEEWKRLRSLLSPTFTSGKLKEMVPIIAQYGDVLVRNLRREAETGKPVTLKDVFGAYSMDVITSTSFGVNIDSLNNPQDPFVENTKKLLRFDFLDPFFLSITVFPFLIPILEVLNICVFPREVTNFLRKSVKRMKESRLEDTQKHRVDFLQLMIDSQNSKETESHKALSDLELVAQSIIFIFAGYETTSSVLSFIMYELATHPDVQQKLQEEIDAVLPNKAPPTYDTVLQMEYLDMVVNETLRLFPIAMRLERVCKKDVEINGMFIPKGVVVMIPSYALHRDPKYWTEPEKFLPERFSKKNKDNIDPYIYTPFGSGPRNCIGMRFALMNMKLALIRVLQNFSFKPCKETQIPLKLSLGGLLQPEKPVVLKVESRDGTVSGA
In words: Inhibition of cytochrome P450 isoenzyme in human liver microsomes. The class given is in vitro ADME. The protocol: (§1) The inhibitory effect of the test compound on different subtypes of human cytochrome P450 isoenzyme was determined. Working solutions of the test compound, standard inhibitor (100×final concentration) and a mixed substrate were prepared. Microsomes frozen in a −80° C. refrigerator were thawed. 2 μL of test compound and the standard inhibitor solution were added into the corresponding wells, while 2 μL of the corresponding solvent was added into the non-inhibitor control well (NIC) and the blank control well (Blank). 20 μL of the mixed substrate solution was added into the corresponding wells except for the Blank well (20 μL of PB was added into the Blank well). Human liver microsomes solution was prepared (it was put back to the refrigerator immediately after use and the date was marked) and 158 μL of human liver microsomes solution were added into all of the wells immediately. The sample plate was pre-incubated under a 37° C. water bath, during which coenzyme factor (NADPH) solution was prepared immediately. After 10 minutes, 20 μL of coenzyme factor (NADPH) solution was added into all of the wells. After the sample plate was shaken evenly, it was incubated under a 37° C. water bath for 10 minutes. 400 μL of cold acetonitrile solution (the internal standard was 200 ng/mL Tolbutamide and Labetalol) was added to terminate the reaction at the corresponding time. After the sample plate was well-mixed, it was centrifuged at 4,000 rpm for 20 minutes to precipitate the protein. 200 μL of the supernatant was collected and added to 100 μL of water, and subjected to LC/MS/MS measurement after being shaken evenly.

For another assay, the target named is T2, CYP2D6 (Homo sapiens, UniProt P10635).
T2 construct: from tissue; host or cells: human liver microsomes
T2 sequence (P10635 whole entry): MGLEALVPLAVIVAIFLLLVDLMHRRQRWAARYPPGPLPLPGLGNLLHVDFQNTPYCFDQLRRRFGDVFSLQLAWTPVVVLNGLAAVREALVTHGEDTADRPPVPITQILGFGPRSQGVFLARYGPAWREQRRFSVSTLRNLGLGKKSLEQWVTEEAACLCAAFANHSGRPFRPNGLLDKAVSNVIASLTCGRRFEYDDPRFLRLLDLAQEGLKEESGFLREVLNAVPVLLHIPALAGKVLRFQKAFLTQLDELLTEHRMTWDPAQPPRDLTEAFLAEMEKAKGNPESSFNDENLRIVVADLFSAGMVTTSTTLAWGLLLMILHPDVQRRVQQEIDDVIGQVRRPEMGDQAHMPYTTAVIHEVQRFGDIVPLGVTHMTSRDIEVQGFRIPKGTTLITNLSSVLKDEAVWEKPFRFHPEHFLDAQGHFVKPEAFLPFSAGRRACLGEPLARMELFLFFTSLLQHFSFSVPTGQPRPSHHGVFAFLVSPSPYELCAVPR
The description is as above. The class given is in vitro ADME. The procedure:
as §1

`COCCCOc1cc2c(cc1OC)-c1cc(=O)c(C(=O)O)cn1[C@H](C(C)(C)C)CO2` [Embodiment 6]: the EC50 in the assay with HBV-DNA came out at 0.00255 µM. Further, the IC50 at CYP3A4-M and against CYP2D6 was greater than 50 µM each time.
